Source: PubChem BioAssay AID1918955 (Molecular Pharmacology Branch, DTP, NCI, 2023)

Test system: NCI/ADR-RES complex spheroid viability
Assay: Anticancer human tumor NCI/ADR-RES cell line growth inhibition;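 as to viability, T/C: 100% = DMSO vehicle treated spheroids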
Settings: for IC50: curve of first compound; for viability, T/C: stronger effect = lower value
Summary of the method: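 Complex spheroids of tumor cells with HUVEC and human MSCs, exposed to iadademstat combined with other agents. Each agent tested in half-log steps from near clinical Cmax (else 10 microM top), DMSO ≤0.25%.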

[1] = second compound 0.1 µM, first compound 0.000316 µM
[2] = second compound 0.1 µM, first compound 0.001 µM
[3] = second compound 0.1 µM, first compound 0.00316 µM
[4] = second compound 0.1 µM, first compound 0.01 µM
[5] = second compound 0.1 µM, first compound 0.0316 µM
[6] = second compound 0.1 µM, first compound 0.1 µM
[7] = second compound 0.316 µM, first compound 0.000316 µM
[8] = second compound 0.316 µM, first compound 0.001 µM
[9] = second compound 0.316 µM, first compound 0.00316 µM
[10] = second compound 0.316 µM, first compound 0.01 µM
[11] = second compound 0.316 µM, first compound 0.0316 µM
[12] = second compound 0.316 µM, first compound 0.1 µM
[13] = second compound 1 µM, first compound 0.000316 µM
[14] = second compound 1 µM, first compound 0.001 µM
[15] = second compound 1 µM, first compound 0.00316 µM
[16] = second compound 1 µM, first compound 0.01 µM
[17] = second compound 1 µM, first compound 0.0316 µM
[18] = second compound 1 µM, first compound 0.1 µM
[19] = second compound 3.16 µM, first compound 0.000316 µM
[20] = second compound 3.16 µM, first compound 0.001 µM
[21] = second compound 3.16 µM, first compound 0.00316 µM
[22] = second compound 3.16 µM, first compound 0.01 µM
[23] = second compound 3.16 µM, first compound 0.0316 µM
[24] = second compound 3.16 µM, first compound 0.1 µM
[25] = second compound 10 µM, first compound 0.000316 µM
[26] = second compound 10 µM, first compound 0.001 µM
[27] = second compound 10 µM, first compound 0.00316 µM
[28] = second compound 10 µM, first compound 0.01 µM
[29] = second compound 10 µM, first compound 0.0316 µM
[30] = second compound 10 µM, first compound 0.1 µM

Structure (SMILES) | IC50 (second compound 0.1 µM) [µM] | IC50 (second compound 0.316 µM) [µM] | IC50 (second compound 1 µM) [µM] | IC50 (second compound 3.16 µM) [µM] | IC50 (second compound 10 µM) [µM] | viability, T/C [1] [%] | viability, T/C [2] [%] | viability, T/C [3] [%] | viability, T/C [4] [%] | viability, T/C [5] [%] | viability, T/C [6] [%] | viability, T/C [7] [%] | viability, T/C [8] [%] | viability, T/C [9] [%] | viability, T/C [10] [%] | viability, T/C [11] [%] | viability, T/C [12] [%] | viability, T/C [13] [%] | viability, T/C [14] [%] | viability, T/C [15] [%] | also measured
CC(C)CC(NC(=O)C(Cc1ccccc1)NC(=O)c1cnccn1)B(O)O (stereo not given) + NC1CCC(NC2CC2c2ccccc2)CC1 | 0.0102 | 0.0121 | 0.0094 | 0.00937 | 0.00659 | 103 | 110 | 92.4 | 51.5 | 10.4 | 4 | 111 | 101 | 100 | 58.1 | 9.17 | 0.68 | 104 | 98.4 | 98.7 | viability, T/C [16]: 46.7%; viability, T/C [17]: 8.19%; viability, T/C [18]: 0.58%; viability, T/C [19]: 95.9%; viability, T/C [20]: 97.1%; viability, T/C [21]: 86.1%; viability, T/C [22]: 48.3%; viability, T/C [23]: 7.8%; viability, T/C [24]: 0.14%; viability, T/C [25]: 94.1%; viability, T/C [26]: 85.4%; viability, T/C [27]: 82.6%; viability, T/C [28]: 31.4%; viability, T/C [29]: 8.41%; viability, T/C [30]: 0.25%
CC(C)CC(NC(=O)CNC(=O)c1cc(Cl)ccc1Cl)B1OC(=O)CC(CC(=O)O)(C(=O)O)O1 (stereo not given) + NC1CCC(NC2CC2c2ccccc2)CC1 | 0.0288 | 0.0288 | 0.0274 | 0.0207 | 0.0142 | 104 | 106 | 107 | 90.4 | 46.6 | 8.2 | 105 | 109 | 103 | 92 | 46.2 | 4.8 | 100 | 102 | 102 | viability, T/C [16]: 91.1%; viability, T/C [17]: 44.2%; viability, T/C [18]: 2.51%; viability, T/C [19]: 92.3%; viability, T/C [20]: 98.3%; viability, T/C [21]: 104%; viability, T/C [22]: 83.5%; viability, T/C [23]: 30.1%; viability, T/C [24]: 3.89%; viability, T/C [25]: 91.4%; viability, T/C [26]: 89.2%; viability, T/C [27]: 87.8%; viability, T/C [28]: 62.1%; viability, T/C [29]: 21%; viability, T/C [30]: 4.15%
